Measured values published in ChEMBL document CHEMBL3046187, “Challenges in docking 2-hydroxy and 2,4-dihydroxychalcones into the binding site of ALR2” (Med Chem Res, 2013).

Each compound was assayed against Aldo-keto reductase family 1 member B1 (Homo sapiens, UniProt P15121) (assay: Inhibition of Homo sapiens (human) aldose reductase).
Compound Cc1ccc(C(=O)c2ccc(CC(=O)O)n2C)cc1 [TOLMETIN] has an IC50 of 2390 nM.
CC1=C(CC(=O)O)c2cc(F)ccc2/C1=C\c1ccc([S+](C)[O-])cc1 (stereo not given) [SULINDAC] was tested, and the IC50 was 374 nM.

The compounds below were run against Aldo-keto reductase family 1 member B1 (Rattus norvegicus, UniProt P07943) (assay: Inhibition of Rattus norvegicus (rat) lens aldose reductase).
Compound O=C(/C=C/c1ccc(O)c(O)c1O)c1cc(Cl)ccc1O has an IC50 of 2230 nM.
Work on CN(C)c1ccc(/C=C/C(=O)c2ccc(O)cc2O)cc1 yielded an IC50 of 1150 nM.
O=C(/C=C/c1cc(O)ccc1O)c1ccc(O)cc1O showed an IC50 of 580 nM.
Compound COc1ccc(/C=C/C(=O)c2ccc(O)cc2O)cc1 has an IC50 of 930 nM.
Cc1ccc(/C=C/C(=O)c2ccc(O)cc2O)cc1 was tested, and the IC50 was 810 nM.
In the case of COc1ccc(/C=C/C(=O)c2cc(Cl)ccc2O)cc1OC, the IC50 is reported as 11800 nM.
COc1ccc(C(=O)/C=C/c2ccc(O)cc2)c(O)c1 gave an IC50 of 5240 nM.
Compound O=C(/C=C/c1ccc(O)cc1O)c1cc(Cl)ccc1O has an IC50 of 850 nM.
Work on COc1ccc(/C=C/C(=O)c2ccc(O)cc2O)cc1F yielded an IC50 of 910 nM.
With O=C(/C=C/c1ccc(O)c(O)c1O)c1ccc(O)cc1O the IC50 was 750 nM.
Cc1ccc(O)c(C(=O)/C=C/c2ccc(O)cc2)c1 was tested, and the IC50 was 4380 nM.
O=C(/C=C/c1ccc(O)cc1)c1ccc(O)cc1O [ISOLIQUIRITIGENIN] was tested, and the IC50 was 400 nM.
With O=C(/C=C/c1ccc(Cl)c(Cl)c1)c1ccc(O)cc1O the IC50 was 1210 nM.
Work on O=C(/C=C/c1cccc(O)c1)c1cc(Cl)ccc1O yielded an IC50 of 10500 nM.
For O=C(/C=C/c1ccc([N+](=O)[O-])cc1)c1ccc(O)cc1O, the IC50 was 3210 nM.
With O=C(/C=C/c1ccc(O)c(O)c1)c1cc(Cl)ccc1O the IC50 was 550 nM.
O=C(/C=C/c1ccccc1)c1ccc(O)cc1O [2',4'-DIHYDROXYCHALCONE] gave an IC50 of 1010 nM.
With COc1ccc(/C=C/C(=O)c2ccc(O)cc2O)cc1OC the IC50 was 1050 nM.
With O=C(/C=C/c1ccc(O)c(O)c1)c1ccc(O)cc1O [BUTEIN] the IC50 was 450 nM.
O=C(/C=C/c1ccc(O)cc1)c1cc(O)ccc1O showed an IC50 of 5390 nM.
O=C(/C=C/c1ccc(O)cc1)c1ccccc1O showed an IC50 of 4250 nM.
In the case of COc1ccc(O)c(C(=O)/C=C/c2ccc(O)cc2)c1, the IC50 is reported as 3180 nM.
Work on O=C(/C=C/c1ccc(Cl)cc1)c1cc(Cl)ccc1O yielded an IC50 of 13700 nM.
Compound O=C(/C=C/c1ccc(O)cc1)c1cc(Cl)ccc1O has an IC50 of 1010 nM.
For O=C(/C=C/c1ccc(Br)cc1)c1ccc(O)cc1O, the IC50 was 1120 nM.
O=C(/C=C/c1ccccc1O)c1cc(Cl)ccc1O gave an IC50 of 1250 nM.
With O=C(/C=C/c1ccccc1O)c1ccc(O)cc1O the IC50 was 380 nM.
With Cc1cccc(/C=C/C(=O)c2cc(Cl)ccc2O)c1 the IC50 was 10200 nM.
Compound Cc1ccc(/C=C/C(=O)c2ccc(O)cc2O)c(C)c1 has an IC50 of 400 nM.
For COc1ccc(/C=C/C(=O)c2cc(Cl)ccc2O)cc1F, the IC50 was 10900 nM.
COc1cccc(O)c1C(=O)/C=C/c1ccc(O)cc1 was tested, and the IC50 was 3270 nM.
Cc1ccc(/C=C/C(=O)c2cc(Cl)ccc2O)c(C)c1 was tested, and the IC50 was 7800 nM.
COc1ccc(/C=C/C(=O)c2cc(Cl)ccc2O)cc1 gave an IC50 of 14800 nM.
Work on Cc1ccc(/C=C/C(=O)c2cc(Cl)ccc2O)cc1 yielded an IC50 of 9800 nM.
For O=C(/C=C/c1ccccc1)c1cc(Cl)ccc1O, the IC50 was 11500 nM.
O=C(/C=C/c1ccc(O)cc1O)c1ccc(O)cc1O gave an IC50 of 160 nM.
With O=C(/C=C/c1ccc(O)cc1)c1cc(Br)ccc1O the IC50 was 2150 nM.
Compound COc1ccc(/C=C/C(=O)c2cc(Cl)ccc2O)c(OC)c1OC has an IC50 of 8200 nM.
